Experimental data from patent publication US20230312605A1, “PYRROLO[2,1-F][1,2,4]TRIAZINES AND PREPARATION AND USES THEREOF” (BioSplice Therapeutics, Inc., priority 2021, published 2023).

Target: recombinant DYRK1A kinase (Homo sapiens (Human), UniProt Q13627)
Experiment: DYRK1A kinase assay (Ser/Thr 18 peptide Z-lyte FRET assay)
Type: biochemical
Conditions: recombinant DYRK1A 0.25 µg/mL, ATP 15 µM, Ser/Thr peptide 18 4 µM, one hour at room temperature; table head prints EC50, method says IC50
Summary of the method: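 Recombinant human DYRK1A (0.25 µg/mL) with 15 µM ATP and 4 µM Ser/Thr 18 peptide was incubated 1 h at room temperature with compound (11-point, 10 µM top), in duplicate. Z-lyte FRET read-out (coumarin/fluorescein emission ratio) was converted to percent phosphorylation; IC50 from non-linear regression.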

Row | EC50 | Compound
1 | 3 nM | Cc1nc2ccc(-c3ccn4nc(N[C@H]5C[C@](C)(O)C5)ncc34)nc2n1CC(F)F [Compound 1835, trans-3-((5-(3-(2,2-Difluoroethyl)-2-methyl-3H-imidazo[4,5-b]pyridin-5-yl)pyrrolo[2,1-f][1,2,4]triazin-2-yl)amino)-1-methylcyclobutan-1-ol]
2 | 20 nM | Cc1nc2ccc(-c3ccn4nc(N[C@@H]5CCOC[C@@H]5O)ncc34)nc2n1CC(F)F [Compound 1865, (3R,4R)-4-((5-(3-(2,2-Difluoroethyl)-2-methyl-3H-imidazo[4,5-b]pyridin-5-yl)pyrrolo[2,1-f][1,2,4]triazin-2-yl)amino)tetrahydro-2H-pyran-3-ol]
3 | 6 nM | Cc1nc2ccc(-c3ccn4nc(N[C@H]5CC[C@@H](CO)CC5)ncc34)nc2n1CC(F)F [Compound 1837, (cis-4-((5-(3-(2,2-Difluoroethyl)-2-methyl-3H-imidazo[4,5-b]pyridin-5-yl)pyrrolo[2,1-f][1,2,4]triazin-2-yl)amino)cyclohexyl)methanol]
4 | 6 nM | COCCO[C@H]1CC[C@@H](Nc2ncc3c(-c4cnc5nccn5c4)ccn3n2)CC1 [Compound 265, 5-(Imidazo[1,2-a]pyrimidin-6-yl)-N-(cis-4-(2-methoxyethoxy)cyclohexyl) pyrrolo[2,1-f] [1,2,4]triazin-2-amine]
5 | 4 nM | COCCO[C@H]1CC[C@@H](Nc2ncc3c(-c4ccc5nc(C)n(CC(F)F)c5n4)ccn3n2)CC1 [Compound 1117, 5-(3-(2,2-Difluoroethyl)-2-methyl-3H-imidazo[4,5-b]pyridin-5-yl)-N-(cis-4-(2-methoxyethoxy)cyclohexyl)pyrrolo[2,1-f][1,2,4]triazin-2-amine]
6 | 3 nM | Cc1nc2ncc(-c3ccn4nc(N[C@H]5CCN(C)C[C@@H]5F)ncc34)cc2n1CC(F)F [Compound 1886, 5-(1-(2,2-Difluoroethyl)-2-methyl-1H-imidazo[4,5-b]pyridin-6-yl)-N-((3S,4S)-3-fluoro-1-methylpiperidin-4-yl)pyrrolo[2,1-f][1,2,4]triazin-2-amine]
7 | 9 nM | c1cn2cc(-c3ccn4nc(NCC5CC5)ncc34)cnc2n1 [Compound 229, N-(Cyclopropylmethyl)-5-(imidazo[1,2-a]pyrimidin-6-yl)pyrrolo[2,1-f] [1,2,4]triazin-2-amine]
8 | 1 nM | CC(=O)N[C@]1(C)C[C@@H](Nc2ncc3c(-c4ccc5nc(C)n(CC(F)F)c5c4)ccn3n2)C1 [Compound 1920, N-((1r,3r)-3-((5-(1-(2,2-Difluoroethyl)-2-methyl-1H-benzo[d]imidazol-6-yl)pyrrolo[2,1-f] [1,2,4]triazin-2-yl)amino)-1-methylcyclobutyl)acetamide]
9 | 3 nM | Cc1nc2ccc(-c3ccn4nc(N[C@H]5CC[C@H](C(=O)N(C)C)CC5)ncc34)nc2n1CC(F)F [Compound 1895, trans-4-((5-(3-(2,2-Difluoroethyl)-2-methyl-3H-imidazo[4,5-b]pyridin-5-yl)pyrrolo[2,1-f] [1,2,4]triazin-2-yl)amino)-N,N-dimethylcyclohexane-1-carboxamide]
10 | 4 nM | Cc1nc2ncc(-c3ccn4nc(NC5CCC(F)(F)CC5)ncc34)cc2n1CC(F)F [Compound 682, N-(4,4-Difluorocyclohexyl)-5-(1-(2,2-difluoroethyl)-2-methyl-1H-imidazo[4,5-b]pyridin-6-yl)pyrrolo[2,1-f] [1,2,4]triazin-2-amine]
11 | 3 nM | Cc1nc2ccc(-c3ccn4nc(N[C@H]5CC[C@](C)(O)CC5)ncc34)nc2n1CC(F)F [Compound 1840, trans-4-((5-(3-(2,2-Difluoroethyl)-2-methyl-3H-imidazo[4,5-b]pyridin-5-yl)pyrrolo[2,1-f][1,2,4]triazin-2-yl)amino)-1-methylcyclohexan-1-ol]
12 | 5 nM | Cc1nc2ccc(-c3ccn4nc(NC5CCC6(CC5)OCCO6)ncc34)nc2n1CC(F)F [Compound 1847]
13 | 6 nM | Cc1nc2ccc(-c3ccn4nc(NC[C@H](C)O)ncc34)nc2n1CC(F)F [Compound 1832, (S)-1-((5-(3-(2,2-Difluoroethyl)-2-methyl-3H-imidazo[4,5-b]pyridin-5-yl)pyrrolo [2,1-f] [1,2,4]triazin-2-yl)amino)propan-2-ol]
14 | 3 nM | CCO[C@H]1CC[C@@H](Nc2ncc3c(-c4ccc5nc(C)n(CC(F)F)c5n4)ccn3n2)CC1 [Compound 1115, N-(cis-4-Ethoxycyclohexyl)-5-(3-(2,2-difluoroethyl)-2-methyl-3H-imidazo [4,5-b]pyridin-5-yl)pyrrolo[2,1-f][1,2,4]triazin-2-amine]
15 | 3 nM | COCCO[C@H]1C[C@@H](Nc2ncc3c(-c4ccc5ncccc5c4)ccn3n2)C1 [Compound 1309, N-(cis-3-(2-Methoxyethoxy)cyclobutyl)-5-(quinolin-6-yl)pyrrolo[2,1-f][1,2,4]triazin-2-amine]
16 | 5 nM | Cc1nc2ccc(-c3ccn4nc(NCC5CN(C)CCO5)ncc34)nc2n1CC(F)F (stereo not drawn) [Compound 1848, 5-(3-(2,2-Difluoroethyl)-2-methyl-3H-imidazo[4,5-b]pyridin-5-yl)-N-((4-methylmorpholin-2-yl)methyl)pyrrolo[2,1-f][1,2,4]triazin-2-amine]
17 | 963 nM | CCO[C@H]1C[C@@H](Nc2ncc3c(-c4cnc5ncccc5c4)ccn3n2)C1 [Compound 1520, N-(cis-3-Ethoxycyclobutyl)-5-(1,8-naphthyridin-3-yl)pyrrolo[2,1-f][1,2,4] triazin-2-amine]
18 | 8 nM | Cc1nc2ccc(-c3ccn4nc(NC5CCN(C(=O)C(C)C)CC5)ncc34)nc2n1CC(F)F [Compound 1859, 1-(4-((5-(3-(2,2-Difluoroethyl)-2-methyl-3H-imidazo[4,5-b]pyridin-5-yl)pyrrolo[2,1-f][1,2,4]triazin-2-yl)amino)piperidin-1-yl)-2-methylpropan-1-one]
19 | 7 nM | FC(F)(F)O[C@H]1CC[C@@H](Nc2ncc3c(-c4cnc5nccn5c4)ccn3n2)CC1 [Compound 1780, 5-(Imidazo[1,2-a]pyrimidin-6-yl)-N-(cis-4-(trifluoromethoxy)cyclohexyl) pyrrolo[2,1-f][1,2,4]triazin-2-amine]
20 | 61 nM | c1cn2cc(-c3ccn4nc(NCC5CCCO5)ncc34)ccc2n1 (stereo not drawn) [Compound 21, 5-(Imidazo[1,2-a]pyridin-6-yl)-N-((tetrahydrofuran-2-yl)methyl)pyrrolo[2,1-f][1,2,4]triazin-2-amine]
21 | 14 nM | FC(F)(F)CCNc1ncc2c(-c3cnc4nccn4c3)ccn2n1 [Compound 220, 5-(Imidazo[1,2-a]pyrimidin-6-yl)-N-(3,3,3-trifluoropropyl)pyrrolo[2,1-f] [1,2,4]triazin-2-amine]
22 | 2 nM | [2H]C([2H])([2H])O[C@H]1CC[C@@H](Nc2ncc3c(-c4cnc5nc(C)n(CC(F)F)c5c4)ccn3n2)CC1 [Compound 1876]
23 | 7 nM | Cc1nc2ccc(-c3ccn4nc(NC[C@@H](C)O)ncc34)nc2n1CC(F)F [Compound 1831, (R)-1-((5-(3-(2,2-Difluoroethyl)-2-methyl-3H-imidazo[4,5-b]pyridin-5-yl)pyrrolo [2,1-f] [1,2,4]triazin-2-yl)amino)propan-2-ol]
24 | 6 nM | Cc1nc2ccc(-c3ccn4nc(N[C@@H]5CCN(C6COC6)C[C@@H]5F)ncc34)nc2n1CC(F)F [Compound 1954, 5-(3-(2,2-Difluoroethyl)-2-methyl-3H-imidazo[4,5-b]pyridin-5-yl)-N-((3 S,4R)-3-fluoro-1-(oxetan-3-yl)piperidin-4-yl)pyrrolo[2,1-f] [1,2,4]triazin-2-amine]
